Data as given in patent US10653693B2, “PRMT5 inhibitors and uses thereof” (Epizyme, Inc., priority 2014, dated 2020).

System: Z138
Test: Cell cycle analysis (propidium iodide staining, FACS)
Assay type: cell-based, Human
Details: 3 days
Experimental: Cells were seeded in 6-well tissue culture dishes in a volume of 3 mL IMDM+10% horse serum (supplemented with 0.5 μg/mL puromycin for transduced cell lines). Cells were treated with DMSO, 10 nM Formula C, or 200 nM Formula C for 3 days. Cells were harvested by centrifuging at 2,000 RPM for 5 minutes, washing with PBS, washing with citrate buffer, then aspirating excess citrate buffer to leave approximately 50 μL remaining above pellet. Pellets were frozen at −80° C. until ready to process.
Pellets were propidium iodide-stained for FACS using the Becton Dickinson CycleTEST PLUS kit (cat. #340242). Solutions A, B, and C of the kit were thawed and then kept on ice. Cell pellets were thawed rapidly at 37° C. and pipetted up and down to resuspend in 50 μL of citrate buffer.
Approximately one quarter of the cell pellet volume was transferred to a fresh Eppendorf tube. 250 μL of solution A was added to each sample and then inverted 7 to 10 times. Samples were placed on a shaker at 150 RPM for 10 minutes at room temperature. Samples were on ice when not shaking. 250 μL of solution B and 250 μL of solution C were added to each sample in the same fashion. […]
Samples were processed by FACS on a Becton Dickinson FACSCalibur machine. The percentage of cells in each cell cycle stage was determined using the cell cycle function on the gated single cell population with FlowJo V10 software.

SMILES: O=C(NC[C@H](O)CN1CCc2ccccc2C1)c1ccnc(NC2CCC2)c1 [Formula C]
- cell cycle effect (10 nM): G1 arrest
- cell cycle effect (200 nM): cell death
